Experiments:
HLA DQ2 molecules = experiment: In vitro binding assays using EBV-transformed B cell lines; set-up: species or system human
naïve human CD4+ T-cells = experiment: T-cell proliferation assay with differentiated dendritic cells and naïve human CD4+ T-cells (tritium incorporation); assay type: cell-based; conditions: for T-cell epitope discovered: naïve donors, positive if response at least 3 times baseline
Procedure: Fresh human peripheral blood cells were collected from “naïve” humans, i.e., persons not known to be exposed to or sensitized to Bacillus lentus protease, for determination of antigenic epitopes in protease from Bacillus lentus and human subtilisin. Naïve humans is intended to mean that the individual is not known to have been exposed to or developed a reaction to protease in the past. Peripheral mononuclear blood cells (stored at room temperature, no older than 24 hours) were prepared for use as follows: Approximately 30 mls of a solution of buffy coat preparation from one unit of whole blood was brought to 50 ml with Dulbecco's phosphate buffered solution (DPBS) and split into two tubes. The samples were underlaid with 12.5 ml of room temperature lymphoprep density separation media (Nycomed density 1.077 g/ml). The tubes were centrifuged for thirty minutes at 600 G. The interface of the two phases was collected, pooled and washed in DPBS. The cell density of the resultant solution was measured by hemocytometer. Viability was measured by trypan blue exclusion.
From the resulting solution, a differentiated dendritic cell culture was prepared from the peripheral blood mononuclear cell sample having a density of 10^8 cells per 75 ml culture flask in a solution as follows: • (1) 50 ml of serum free AIM V media (Gibco) was supplemented with a 1:100 dilution beta-mercaptoethanol (Gibco). The flasks were laid flat for two hours at 37° C. in 5% CO2 to allow adherence of monocytes to the flask wall. • (2) Differentiation of the monocyte cells to dendritic cells was as follows: nonadherent cells were removed and the resultant adherent cells (monocytes) combined with 30 ml of AIM V, 800 units/ml of GM-CSF (Endogen) and 500 units/ml of IL-4 (Endogen); the resulting mixture was cultured for 5 days under conditions at 37° C. in 5% CO2. […] Adherent and non-adherent cells were then centrifuged at 600 G for 5 minutes, washed in DPBS and counted. • (4) The prepared dendritic cells were placed into a 96 well round bottom array at 2×10^4/well in 100 microliter total volume of AIM V media.
CD4+ T cells were prepared from frozen aliquots of the peripheral blood cell samples used to prepare the dendritic cells using the human CD4+ Cellect Kit (Biotex) as per the manufacturers instructions with the following modifications: the aliquots were thawed and washed such that approximately […] will be applied per Cellect column; the cells were resuspended in 4 ml DPBS and 1 ml of the Cell reagent from the Cellect Kit, the solution maintained at room temperature for 20 minutes. […] The resultant CD4+ cell solution was centrifuged, resuspended in AIMV media and the density counted. […]

[1] = tested on: T-cells of an individual known to be hypersensitive to Bacillus lentus protease; experiment: T-cell response to peptides in a sample from an individual hypersensitive to Bacillus lentus protease; assay type: cell-based, human
Source text: Peptide E05 represents the region corresponding to 170-173 in protease from Bacillus amyloliquefaciens.
Alanine substitutions were used as substitutions for the purpose of determining the role of any specific residue within the epitope. The legend of FIG. 10 refers to the position of the peptide in which an alanine was substituted, i.e., in peptide E06 (sequence GSISYPARYANAMAV (SEQ ID NO: 210)), G to A=2, S to A=3, I to A=4, S to A=5, Y to A=6, P to A=7, R to A=8, Y to A=9, N to A=10, M to A=11 and V to A=12.

Substance | binding to HLA DQ2 molecules (HLA DQ2 molecules) | T-cell epitope discovered (naïve human CD4+ T-cells) | further results
70-84: BPN′ peptide of region 70-84, human T cell epitope (GTVAALNNSIGVLGV; UniProt P00782 177-191, looked up, fragment) [Peptide 70-84] | bound |  | 
109-123: BPN′ peptide of region 109-123, human T cell epitope (NGIEWAIANNMDVIN; UniProt P00782 216-230, looked up, fragment) [Peptide 109-123] | bound |  | 
A01: peptide derived from Humicola insolens cellulase (Carezyme); legend: A02, residues 70-84 (PGGVAYSCADQTPWA) [Peptide A01] |  | T-cell epitopes were discovered | 
A12: peptide derived from Thermomyces lanuginosa lipase (Lipolase); legend: B02, residues 83-100 (GDVTGFLALDNTNKLIVL) [Peptide A12] |  | T-cell epitopes were discovered | 
F06: peptide of Humicola insolens endogluconase, residues 37-51 (SEQ ID NO: 223) (CGWAKKAPVNQPVFS) [Peptide F06] |  | T-cell epitopes were discovered | 
GSISYPARYANAMAV [Peptide E05, Bacillus lentus protease peptide with region corresponding to 170-173 of B. amyloliquefaciens protease] |  |  | T-cell response to peptide [1]: highly responsive; immunogenic response (T-cell proliferation) to peptide (naïve human CD4+ T-cells; naïve blood samples from unsensitized individuals, response relative to baseline): marked allergenic response

From US6897049B1, “Proteins producing an altered immunogenic response and methods of making and using the same” (Genencor International, Inc., priority 1998, dated 2005)
